Source: publication PMC12970513, “Unsaturated Phosphorus Electrophiles to Probe Protein Tyrosine Phosphatases” (Angewandte Chemie (International Ed. in English), 2026)

Experiments:
[1] = Stability of SM-PN and SM-PO in aqueous buffer by 31P NMR; assay type: physicochemical; conditions: room temperature
Protocol: Next, we assessed the stability of the phosphonamidic and phosphonic acid in aqueous buffers at pH 2, pH 3.5, pH 7.4, pH 8.5, and pH 11. Therefore, SM‐PN and SM‐PO were added in the corresponding buffers and monitored for 48 h at room temperature via ^31P‐NMR with triphenylphosphinoxide (TPPO) as an internal standard (Figure S2). […] Furthermore, we evaluated the stability of the peptide probes bio‐PN and bio‐PO in human lysate for subsequent experiments. These peptides were added in HEK293T cell lysate, and changes in stability were recorded for 18 h via ^31P‐NMR, in which inorganic phosphate served as an internal standard. […] Nonetheless, both peptides display sufficient stability for follow‐up studies.
Figure S2: pH dependent stability of phosphonamidic and phosphonic acids at room temperature monitored by ^31P NMR. a) Decay of starting material SM-PN. […] At pH 2.0 the compound was already hydrolyzed in minutes before the next measurement. b) Decay of SM-PO in identical conditions.
Internal standard triphenylphosphine oxide (TPPO, 12 µL of a 100 mM stock in DMSO, final concentration 2 mM) and SM-PN or SM-PO (36 µL of a 50 mM stock in DMSO, final concentration 3 mM) were added in microcentrifuge tubes containing 552 µL of each test buffer solution (0.1% TFA pH 2, 50 mM NaOAc pH 3.5, 50 mM Tris pH 7.4, 50 mM Tris pH 8.5, 50 mM TEAB pH 11.0, containing 10% D2O (492 μL buffer and 60 μL D2O) and mixed right before the measurement. The mixtures were transferred to NMR tubes and one-dimensional ^31P-NMR spectra were recorded for each sample at room temperature, in intervals of 4 h over the course of 48 h on a Bruker AV-III 600 or AV-III 300 spectrometer. For analysis, the spectra were plotted in MestReNova and the intensity of the ^31P-NMR signal was analyzed by integration.

[2] = Thiol reactivity with glutathione (UPLC-UV/MS); conditions: 1 mM compound, 10 mM GSH (10 equivalents), 25°C / room temperature, 16 h, caffeine (peptides) or TPPO (SM) internal standard, n = 3; for consumption of starting material to glutathione adduct, pH 7.4: Tris pH 7.4, 10% DMSO; for consumption of starting material to glutathione adduct, pH 8.5: Tris pH 8.5, 10% DMSO
Protocol: After verifying the stability of the phosphonamidic and phosphonic acid warheads at physiological and slightly basic pH, we aimed to investigate the reactivity towards endogenous thiol concentrations. For this, 1 mM bio‐PN or bio‐PO and 1 mM caffeine as an internal standard, as well as 1 mM SM‐PN or SM‐PO and 1 mM TPPO (internal standard), were incubated at room temperature with 10 equivalents (10 mM) glutathione (GSH), and the outcome was followed by UPLC‐MS (Figure S4).
FIGURE 3 Time‐dependent decay of bio‐PN, bio‐PO, SM‐PN, and SM‐PO (1 mM) in the presence of 10 mM GSH with 1 mM caffeine or TPPO as internal standard. The assay was performed at 25°C in Tris buffer (10% DMSO) at (a) pH 7.4, (b) pH 8.5. Results are presented as mean ± standard deviation (n = 3). (c) Labeling conditions to assess by ESI‐MS the ability of bio‐PN, bio‐PO, SM‐PN, and SM‐PO to covalently bind recombinant PTP1B. Stacked deconvoluted MS spectra of the initial time point (t0) of PTP1B labeling with (d) bio‐PO after 4 h: full labeling, (e) bio‐PN after 20 h: ∼80% labeling, (f) SM‐PO after 20 h: no labeling, (g) SM‐PN after 20 h: no labeling.
Figure S4: Monitoring of thiol reactivity with GSH as a model thiol of peptide and small molecule phosphonamidic and phosphonic acids by UPLC-UV/MS. a) Reaction conditions for bio-PN and bio-PO. b) Exemplary UV chromatograms of bio-PO at pH 8.5 and at 0 and 16 hours, highlighting the internal standard (caffeine) and the compound. c) Reaction conditions for SM-PN and SM-PO. d) Exemplary UV chrommatogramms of SM-PN at pH 8.5 and at 0 and 16 hours, highlighting the internal standard (TPPO) and the compound. All experiments were prepared in triplicates. [picture]
For testing the thiol reactivity of bio-PN and bio-PO at pH 7.4, 10 µL of a 10 mM caffeine (internal standard) stock solution in Tris buffer pH 7.4 (final concentration 1 mM) and 10 µL of a 10 mM peptide stock solution in DMSO were added in 75 µL of 50 mM Tris buffer, pH 7.4. Immediately prior to the measurement, 5 µL of a 200 mM stock solution of reduced glutathione (final concentration 10 mM, 10.0 eq.) in Tris buffer (pH adjusted to 7.4) were added. The solutions were transferred to a sample vial and measured by UPLC-UV/MS at room temperature and at time points t0, t0.5h, t1h, t2h, t4h, t8h, t16h 1 µL of the reaction mixture was injected. For the analysis, the peak area of the internal standard was correlated with that of the starting material. The same protocol was followed at pH 8.5 using Tris buffer adjusted accordingly.
Similar conditions were applied in the case of SM-PN and SM-PO. […]

stability in neutral and basic pH ([1]; 50 mM Tris pH 7.4, 50 mM Tris pH 8.5, 50 mM TEAB pH 11.0, 3 mM compound, 48 h) | hydrolysis ([1]; pH 2 (0.1% TFA), 3 mM compound, TPPO internal standard) | hydrolysis of the starting material ([1]; pH 3.5 (50 mM NaOAc), 3 mM compound, 10% D2O, TPPO internal standard, 48 h) | SMILES | consumption of starting material to glutathione adduct, pH 7.4 [2] | consumption of starting material to glutathione adduct, pH 8.5 [2] | stability at all tested pH values ([1]; pH 2, pH 3.5, pH 7.4, pH 8.5 and pH 11, 3 mM compound, 48 h)
good stability in neutral and basic pH | already hydrolyzed in a few minutes | about 80% | C#CP(=O)(O)Nc1ccc(CCNC(=O)CCCC[C@@H]2SC[C@@H]3NC(=O)N[C@@H]32)cc1 [SM-PN, N-(4-(2-biotinamidoethyl)phenyl)-P-ethynylphosphonamidic acid] | no consumption of the starting material to a glutathione adduct was observed | no consumption of the starting material to a glutathione adduct was observed | 
 |  |  | C#CP(=O)(O)Oc1ccc(CCNC(=O)CCCC[C@@H]2SC[C@@H]3NC(=O)N[C@@H]32)cc1 [SM-PO, 4-(2-biotinamidoethyl)phenyl ethynylphosphonic acid monoester] | no consumption of the starting material to a glutathione adduct was observed | no consumption of the starting material to a glutathione adduct was observed | excellent stability in all tested pH values
